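Following 48 hours of exposure in 96-well plates, responses at five concentrations were used to interpolate endpoints linearly. GI50 = concentration required for 50% inhibition of growth.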 The source made the active and inactive calls. Rule as the data show it: active = GI50 up to about 1.1 µM and inactive = higher.

Consider seven molecules from ChEMBL document CHEMBL1201862, “PubChem BioAssay data set” (2004).

Common to all, as to assay: inhibition of tumour cell growth, NCI panel, 48 h
The subject of assay [1] is A549.
The test system of assay [2] is CAKI-1.
For assay [3], the system named is COLO 205.
The test system of assay [4] is EKVX.
Assay [5] relates to HL-60.
Assay [6] has as its system HT-29.
Assay [7] concerns K562.
In assay [8] the test system is M14.
The test system of assay [9] is MCF7.
Assay [10] has as its system MDA-MB-231.
In assay [11] the test system is MDA-N.
Assay [12] has as its system NCI-H23.
Assay [13] relates to NCI-H460.
Assay [14] deals with NCI-H522.
Assay [15] deals with OVCAR-5.
In assay [16] the test system is RXF 393.
The subject of assay [17] is SK-MEL-28.
For assay [18], the system named is SN12C.
Assay [19] deals with SNB-75.
Assay [20] concerns UO-31.

With `O=c1oc2ccc(Cl)cc2cc1-c1cn2cc(Cl)ccc2n1`, the GI50 in assay [1] was 14.1 µM (inactive); in assay [2], > 22.4 µM (inactive); in assay [3], > 100 µM (inactive); in [4], > 37.3 µM (inactive); in assay [5], 3.4 µM (inactive); in [6], > 24.3 µM (inactive). For the same molecule, the GI50 is 5.05 µM (inactive) in assay [7]; 4.46 µM (inactive) in assay [8]; 1.64 µM (inactive) in assay [9]; > 70.3 µM (inactive) in assay [10]; 0.368 µM (active) in assay [11]; > 100 µM (inactive) in assay [12]. For the same molecule, the GI50 in assay [13] was 14.4 µM (inactive); in assay [14] it was 0.74 µM (active); in [15], > 100 µM (inactive); in [16] it was > 100 µM (inactive); in [17], > 100 µM (inactive); in [18], > 89.1 µM (inactive). Also, the GI50 is > 100 µM (inactive) in [19] and > 44 µM (inactive) in assay [20].

As for `O=C(OC1C#CCSCC#C/C=C\1)c1ccc2c(c1)C(=O)c1ccccc1C2=O` (stereo not given), the GI50 in assay [1] is > 100 µM (inactive); in assay [2] it was 37.5 µM (inactive); in assay [3] it was 82.2 µM (inactive); in [4], 64.7 µM (inactive); in assay [5], > 100 µM (inactive); in assay [6], > 100 µM (inactive). Besides, the GI50 was > 100 µM (inactive) in assay [7]; 65.2 µM (inactive) in [8]; 41.2 µM (inactive) in assay [9]; 26.2 µM (inactive) in assay [10]; > 100 µM (inactive) in [11]; 40.7 µM (inactive) in assay [12]. Further, the GI50 in assay [13] is > 100 µM (inactive); in assay [14] it was 23.8 µM (inactive); in assay [15], > 100 µM (inactive); in assay [16], 18.4 µM (inactive); in assay [17], > 100 µM (inactive); in assay [18] it was > 100 µM (inactive). For the same molecule, the GI50 is 26.4 µM (inactive) in [19] and 42.7 µM (inactive) in [20].

As to `CCOC(=O)c1ccc(/N=C2\SC(=S)N(c3ccc(F)cc3)\C2=N/c2ccc(C(=O)OCC)cc2)cc1`, the GI50 in [1] was 41 µM (inactive); in assay [2], 21.9 µM (inactive); in assay [3], 19.3 µM (inactive); in assay [4], 22.1 µM (inactive); in [5], 5.78 µM (inactive); in [6] it was 30.5 µM (inactive). Besides, the GI50 is 12.3 µM (inactive) in [7]; 6.75 µM (inactive) in assay [8]; 18.8 µM (inactive) in [9]; 7.8 µM (inactive) in assay [10]; 12.9 µM (inactive) in [11]; 17.8 µM (inactive) in assay [12]. Also, the GI50 in [13] is 51.9 µM (inactive); in assay [14], 5.97 µM (inactive); in [15] it was 23 µM (inactive); in assay [16], 9.68 µM (inactive); in assay [17] it was 13.2 µM (inactive); in [18] it was 15.7 µM (inactive). Further, the GI50 is 20.2 µM (inactive) in assay [19] and 10.8 µM (inactive) in assay [20].

Regarding `CC1=C(Br)C(=O)c2c(O)ccc(O)c2C1=O`, the GI50 in assay [1] is 1.89 µM (inactive); in [2], 0.282 µM (active); in [3], 0.187 µM (active); in assay [4], 2.37 µM (inactive); in assay [5], 0.0306 µM (active); in assay [6] it was 0.336 µM (active). The GI50 was 0.133 µM (active) in assay [7]; 0.431 µM (active) in assay [8]; 0.182 µM (active) in assay [9]; 1.26 µM (inactive) in assay [10]; 0.251 µM (active) in assay [11]; 0.938 µM (active) in [12]. Besides, the GI50 is 1.26 µM (inactive) in assay [13]; 0.153 µM (active) in assay [14]; 1.66 µM (inactive) in assay [15]; 1.42 µM (inactive) in [16]; 0.875 µM (active) in assay [17]; 1.38 µM (inactive) in assay [18]. Further, the results for the GI50 in [19] and in assay [20] were 1.51 µM (inactive) and 0.625 µM (active), respectively.

Turning to `CCOC(=O)NNC(=O)NCc1cccc(CNC(=O)NNC(=O)OCC)c1`, the GI50 in [1], in [2], in assay [3], in assay [4], in assay [5] and in [6] was > 100 µM (inactive) throughout. In addition, the GI50 in assay [7], in assay [8], in assay [9], in assay [10], in [11] and in [12] was > 100 µM (inactive) each time. In addition, the GI50 in assay [13], in assay [14], in [15], in [16], in assay [17] and in [18] was > 100 µM (inactive) each time. Besides, the GI50 in [19] and in assay [20] was > 100 µM (inactive) in each case.

Consider `CC1=C(C(=O)Nc2ccccc2)C2(CCCCC2)C(C#N)=C(SCC(=O)Nc2ccc(Br)cc2)N1`, for which the GI50 in assay [1] is 3.77 µM (inactive); in [2], 4.76 µM (inactive); in assay [3], 2.11 µM (inactive); in [4], 2.15 µM (inactive); in assay [5] it was 3.18 µM (inactive); in assay [6], 2.45 µM (inactive). The GI50 in assay [7] is 3.34 µM (inactive); in assay [8], 3.61 µM (inactive); in assay [9], 4.51 µM (inactive); in assay [10], 7.33 µM (inactive); in [11] it was 3.41 µM (inactive); in [12] it was 4.1 µM (inactive). For the same molecule, the GI50 in assay [13] is 3.22 µM (inactive); in assay [14], 2.06 µM (inactive); in assay [15], 4.99 µM (inactive); in [16], 4.54 µM (inactive); in assay [17], 5.73 µM (inactive); in assay [18], 4.23 µM (inactive). For the same molecule, the GI50 in assay [19] is 8.51 µM (inactive); in assay [20] it was 1.39 µM (inactive).

Turning to `Cc1c(-c2ccc(-c3ccccc3F)cc2)nc2ccc(F)cc2c1C(=O)O` [BREQUINAR SODIUM], the GI50 was 0.234 µM (active) in assay [1]; 0.904 µM (active) in [2]; 0.519 µM (active) in assay [3]; 16 µM (inactive) in assay [4]; 0.479 µM (active) in [5]; 0.374 µM (active) in assay [6]. For the same molecule, the GI50 is 0.143 µM (active) in assay [7]; 4.7 µM (inactive) in assay [8]; 0.267 µM (active) in [9]; 9.93 µM (inactive) in assay [10]; 0.631 µM (active) in [11]; 21.5 µM (inactive) in assay [12]. Also, the GI50 was 0.128 µM (active) in assay [13]; 2 µM (inactive) in [14]; 38.8 µM (inactive) in assay [15]; 11.7 µM (inactive) in assay [16]; 9.93 µM (inactive) in [17]; 1.79 µM (inactive) in [18]. The GI50 was 30.3 µM (inactive) in assay [19] and 1.14 µM (inactive) in assay [20].
